In US9695155B2, “Herbicidal substituted pyrimidinyloxy benzene compounds” (E. I. DU PONT DE NEMOURS AND COMPANY, priority 2013, dated 2017):

How the values were obtained:
[1] = tested on: ragweed; experiment: Test F preemergence; format: in vivo, Ambrosia elatior; details: 21 days, scale 0 to 100
Source text: (§1) Seeds of plant species selected from bermudagrass (Cynodon dactylon), surinam grass (Brachiaria decumbens), large (Lg) crabgrass (Digitaria sanguinalis), crabgrass, naked (naked crabgrass, Digitaria nuda), foxtail, green (green foxtail, Setaria viridis), johnsongrass (Sorghum halepense), kochia (Kochia scoparia), morningglory (pitted morningglory, Ipomoea lacunosa), nutsedge, purple (purple nutsedge, Cyperus rotundus), ragweed (common ragweed, Ambrosia elatior), mustard, black (black mustard, Brassica nigra), guineagrass (Panicum maximum), dallisgrass (Paspalum dilatatum), barnyardgrass (Echinochloa crus-galli), sandbur (southern sandbur, Cenchrus echinatus), sowthistle (common sowthistle, Sonchus oleraceous), Italian ryegrass (Lolium multiflorum), signalgrass (broadleaf signalgrass, Brachiaria platyphylla), dayflower (Virginia (VA) dayflower, Commelina virginica), bluegrass (annual bluegrass, Poa annua), quackgrass (Elytrigia repens), mallow (common mallow, Malva sylvestris), buckwheat, wild (wild buckwheat, Polygonum convolvulus), leafy spurge (Euphorbia esula), chickweed (common chickweed, Stellaria media), wild poinsettia (Euphorbia heterophylla), and pigweed (Amaranthus retroflexus) were planted into a blend of loam soil and sand and treated preemergence with test chemicals formulated in a non-phytotoxic solvent mixture which included a surfactant.
(§2) Treated plants and controls were maintained in a greenhouse for 21 days, after which time all species were compared to controls and visually evaluated. Plant response ratings, summarized in Table F, are based on a scale of 0 to 100 where 0 is no effect and 100 is complete control. A dash (-) response means no test result.

[2] = tested on: quackgrass; experiment: Test F preemergence; format: in vivo, Elytrigia repens; details: 21 days, scale 0 to 100
Source text: as §1, §2

[3] = tested on: dallisgrass; experiment: Test F preemergence; format: in vivo, Paspalum dilatatum; details: 21 days, scale 0 to 100
Source text: as §1, §2

[4] = tested on: Italian ryegrass; experiment: Test F preemergence; format: in vivo, Lolium multiflorum; details: 21 days, scale 0 to 100
Source text: as §1, §2

[5] = tested on: galium; experiment: Test D postemergence; format: in vivo, Galium aparine
In short: (§3)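 After treatment, visual injury versus untreated plants, 0–100 scale, assessed at 7 to 21 days. Applications were made preemergence to silt loam-sown seed and postemergence to seedlings 2–18 cm high in potting medium.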

[6] = tested on: wild mustard; experiment: Test D preemergence; format: in vivo, Sinapis arvensis
In short: as §3

[7] = tested on: pigweed; experiment: Test D postemergence; format: in vivo, Amaranthus retroflexus
In short: as §3

[8] = tested on: field violet; experiment: Test D postemergence; format: in vivo, Viola arvensis
In short: as §3

[9] = tested on: bluegrass; experiment: Test D preemergence; format: in vivo, Poa annua
In short: as §3

[10] = tested on: blackgrass; experiment: Test D postemergence; format: in vivo, Alopecurus myosuroides
In short: as §3

[11] = tested on: green foxtail; experiment: Test D postemergence; format: in vivo, Setaria viridis
In short: as §3

[12] = tested on: field poppy; experiment: Test D postemergence; format: in vivo, Papaver rhoeas
In short: as §3

[13] = tested on: canarygrass; experiment: Test D postemergence; format: in vivo, Phalaris minor
In short: as §3

[14] = tested on: wild buckwheat; experiment: Test D postemergence; format: in vivo, Polygonum convolvulus
In short: as §3

[15] = tested on: winter barley; experiment: Test D postemergence; format: in vivo, Hordeum vulgare
In short: as §3

[16] = tested on: spring barley; experiment: Test D postemergence; format: in vivo, Hordeum vulgare
In short: as §3

[17] = 31 g ai/ha, scale 0 to 100 (0 no effect, 100 complete control)
[18] = 62 g ai/ha, scale 0 to 100 (0 no effect, 100 complete control)
[19] = 125 g ai/ha, scale 0 to 100 (0 no effect, 100 complete control)
[20] = 16 g ai/ha, scale 0 (no effect) to 100 (complete control)
[21] = Postemergence, 62 g ai/ha, scale 0 to 100 (0 no effect, 100 complete control)
[22] = Postemergence, 31 g ai/ha, scale 0 to 100 (0 no effect, 100 complete control)
[23] = Postemergence, 125 g ai/ha, scale 0 to 100 (0 no effect, 100 complete control)
[24] = postemergence, 16 g ai/ha, scale 0 to 100, 0 no effect, 100 complete control

## N#Cc1cccc(Oc2ncc(F)cn2)c1-n1cc(C(F)(F)F)cn1 [Compound 79, 3-[(5-fluoro-2-pyrimidinyl)oxy]-2-[4-(trifluoromethyl)-1H-pyrazol-1-yl]benzonitrile]
[1]; 16 g ai/ha
  Plant response rating, Ragweed: 25
[1]; 31 g ai/ha
  Plant response rating, Ragweed: 70
[1]; 62 g ai/ha
  Plant response rating, Ragweed: 98
[1]; 125 g ai/ha
  Plant response rating, Ragweed: 100
[1]; 250 g ai/ha
  Plant response rating, Ragweed: 100
[2]; 16 g ai/ha
  Plant response rating, Quackgrass: 40
[2]; 31 g ai/ha
  Plant response rating, Quackgrass: 70
[2]; 62 g ai/ha
  Plant response rating, Quackgrass: 95
[2]; 125 g ai/ha
  Plant response rating, Quackgrass: 98
[2]; 250 g ai/ha
  Plant response rating, Quackgrass: 100
[3]; 16 g ai/ha
  Plant response rating, Dallisgrass: 65
[3]; 31 g ai/ha
  Plant response rating, Dallisgrass: 98
[3]; 62 g ai/ha
  Plant response rating, Dallisgrass: 100
[3]; 125 g ai/ha
  Plant response rating, Dallisgrass: 100
[3]; 250 g ai/ha
  Plant response rating, Dallisgrass: 100
[4]; 16 g ai/ha
  Plant response rating, Ryegrass, Italian: 30
[4]; 31 g ai/ha
  Plant response rating, Ryegrass, Italian: 75
[4]; 62 g ai/ha
  Plant response rating, Ryegrass, Italian: 98
[4]; 125 g ai/ha
  Plant response rating, Ryegrass, Italian: 100
[4]; 250 g ai/ha
  Plant response rating, Ryegrass, Italian: 100

## N#Cc1cccc(Oc2ncc(Cl)cn2)c1-n1cc(OC(F)F)cn1 [Compound 97]
[1]; 16 g ai/ha
  Plant response rating, Ragweed: 10
[1]; 31 g ai/ha
  Plant response rating, Ragweed: 75
[1]; 62 g ai/ha
  Plant response rating, Ragweed: 85
[1]; 125 g ai/ha
  Plant response rating, Ragweed: 95
[1]; 250 g ai/ha
  Plant response rating, Ragweed: 100
[2]; 16 g ai/ha
  Plant response rating, Quackgrass: 0
[2]; 31 g ai/ha
  Plant response rating, Quackgrass: 35
[2]; 62 g ai/ha
  Plant response rating, Quackgrass: 50
[2]; 125 g ai/ha
  Plant response rating, Quackgrass: 95
[2]; 250 g ai/ha
  Plant response rating, Quackgrass: 100
[3]; 16 g ai/ha
  Plant response rating, Dallisgrass: 75
[3]; 31 g ai/ha
  Plant response rating, Dallisgrass: 98
[3]; 62 g ai/ha
  Plant response rating, Dallisgrass: 100
[3]; 125 g ai/ha
  Plant response rating, Dallisgrass: 100
[3]; 250 g ai/ha
  Plant response rating, Dallisgrass: 100
[4]; 16 g ai/ha
  Plant response rating, Ryegrass, Italian: 0
[4]; 31 g ai/ha
  Plant response rating, Ryegrass, Italian: 35
[4]; 62 g ai/ha
  Plant response rating, Ryegrass, Italian: 70
[4]; 125 g ai/ha
  Plant response rating, Ryegrass, Italian: 85
[4]; 250 g ai/ha
  Plant response rating, Ryegrass, Italian: 100

## FCc1cccc(Oc2ncc(Cl)cn2)c1-n1cc(I)cn1 [Compound 245]
[5]; 16 g ai/ha, scale 0-100
  Plant response rating, Galium: 70
[5]; [17]
  Plant response rating, Galium: 75
[5]; [18]
  Plant response rating, Galium: 90
[5]; [19]
  Plant response rating, Galium: 98
[6]; [20]
  Plant response rating, Mustard, Wild: 80
[6]; 31 g ai/ha, scale 0-100
  Plant response rating, Mustard, Wild: 80
[6]; 62 g ai/ha, scale 0-100
  Plant response rating, Mustard, Wild: 85
[6]; 125 g ai/ha, scale 0-100
  Plant response rating, Mustard, Wild: 100
[7]; 16 g ai/ha, scale 0-100
  Plant response rating, Pigweed: 95
[7]; [17]
  Plant response rating, Pigweed: 95
[7]; [18]
  Plant response rating, Pigweed: 100
[7]; [19]
  Plant response rating, Pigweed: 100
[8]; 16 g ai/ha, scale 0-100
  Plant response rating, Field Violet: 25
[8]; [17]
  Plant response rating, Field Violet: 80
[8]; [18]
  Plant response rating, Field Violet: 90
[8]; [19]
  Plant response rating, Field Violet: 90
[9]; [20]
  Plant response rating, Bluegrass: 0
[9]; 31 g ai/ha, scale 0-100
  Plant response rating, Bluegrass: 0
[9]; 62 g ai/ha, scale 0-100
  Plant response rating, Bluegrass: 0
[9]; 125 g ai/ha, scale 0-100
  Plant response rating, Bluegrass: 20
[10]; [21]
  Plant response rating, Blackgrass: 20
[10]; [22]
  Plant response rating, Blackgrass: 10
[10]; [23]
  Plant response rating, Blackgrass: 25
[10]; [24]
  Plant response rating, Blackgrass: 5
[11]; 16 g ai/ha, scale 0-100
  Plant response rating, Foxtail, Green: 10
[11]; [17]
  Plant response rating, Foxtail, Green: 20
[11]; [18]
  Plant response rating, Foxtail, Green: 35
[11]; [19]
  Plant response rating, Foxtail, Green: 45
[12]; 16 g ai/ha, scale 0-100
  Plant response rating, Field Poppy: 90
[12]; [17]
  Plant response rating, Field Poppy: 95
[12]; [18]
  Plant response rating, Field Poppy: 80
[12]; [19]
  Plant response rating, Field Poppy: 100
[13]; 16 g ai/ha, scale 0-100
  Plant response rating, Canarygrass: 0
[13]; [17]
  Plant response rating, Canarygrass: 20
[13]; [18]
  Plant response rating, Canarygrass: 25
[13]; [19]
  Plant response rating, Canarygrass: 35
[14]; [21]
  Plant response rating, Buckwheat, Wild: 75
[14]; [22]
  Plant response rating, Buckwheat, Wild: 70
[14]; [23]
  Plant response rating, Buckwheat, Wild: 90
[14]; [24]
  Plant response rating, Buckwheat, Wild: 70
[15]; [21]
  Plant response rating, Barley, Winter: 20
[15]; [22]
  Plant response rating, Barley, Winter: 15
[15]; [23]
  Plant response rating, Barley, Winter: 20
[15]; [24]
  Plant response rating, Barley, Winter: 25
[16]; [21]
  Plant response rating, Barley, Spring: 20
[16]; [22]
  Plant response rating, Barley, Spring: 20
[16]; [23]
  Plant response rating, Barley, Spring: 30
[16]; [24]
  Plant response rating, Barley, Spring: 10
